Source: patent US20070276032A1, “Use of 8-Prenylnaringenin for Hormone Replacement Therapy” (priority 2003, published 2007)

Tests used:
Type in all cases: in vivo, Sprague-Dawley rats
[1] = test system: ovariectomized rats; experiment: Relative uterine weight, 2S(−) 8-PN in ovariectomized rats (Example 3); settings: OVX rats; for Relative uterus weight, Mean: s.c. 7 times a week
Description: The aim of the study was to examine bone and uterine effects of a 4-week treatment with 2S(−) 8-Prenylnaringenin (8-PN) in 3-month-old ovariectomized rats. […] At the end of the study, uterine weight and ex vivo bone mineral density (BMD) of tibia were measured.
A total of 30 female 13-14-week-old Sprague-Dawley rats were used in the study. The animals were randomized into 5 groups, with 6 rats/group. Group 1 was sham-operated (SHAM) and groups 2-5 were ovariectomized (OVX).
Treatments with the vehicle or test substance started on the day following operation. […] The animals were sacrificed one day after the last dosing. At the end of the study, left tibiae were excised for ex vivo BMD measurement (pQCT) at proximal tibia and uteri were excised for the determination of absolute and relative weights. In addition, samples for the determination of 2S(−)8-Prenylnaringenin concentration were taken from all dosing solutions on the day when they were prepared and on the last day of use. The data of body weights, relative uterine weights and BMD were analyzed with one-way analysis of variance.
Relative uterine weight was calculated as percentage of body weight

[2] = test system: ovariectomized rats; experiment: Trabecular density of proximal tibia, 8-PN racemic, 2S(−) 8-PN and estradiol hemihydrate in ovariectomized rats (Example 4); settings: OVX rats; s.c. 28 days; 20 mg/kg/d in HP-β-CD
Description: (§1) The aim of the study was to directly compare the effects of Prenylnaringenin (racemate) and 2S(−) 8-Prenylnaringenin to the effects of estradiol hemihydrate on bone mineral density and uterine weight on 3-month-old ovariectomized rats using identical formulations. In addition, the effects of estradiolhemihydrate in two vehicles (oily, aqueous) were examined for influence of formulations. The substances were administered subcutaneously(s.c.) seven days a week beginning the day after ovariectomy. At the end of the study, uterine weight and bone mineral density (BMD) of tibia were measured.
(§2) Forty-one female Sprague-Dawley rats, 12-14 weeks of age were randomized into six groups, 6-8 animals in each. Five groups were ovariectomized (OVX) and one group was sham-operated (SHAM). Treatments started on the day following operation and continued for 28 days. The animals were treated s.c. once a day seven times a week as follows. Group 1 (SHAM vehicle group) and group 2 (OVX vehicle group) were given the vehicle 30% hydroxypropyl-β-cyclodextrin (HP-β-CD). Groups 3 and 4 were administered 4 μg/kg/d of estradiol hemihydrate in vehicle benzyl benzoate/ricinus oil (B/R) and in vehicle HP-β-CD, respectively. Groups 5 and 6 were given 20 mg/kg/d of 2S(−)8-Prenylnaringenin and racemic 8-Prenylnaringenin, respectively, both in vehicle HP-β-CD. At the end of the study, left tibiae were excised for the ex vivo BMD […] were taken from all dosing solutions on the first and last day of use.
(§3) Vehicle 1 (used in the groups 1 and 2): 30% hydroxypropyl-β-cyclodextrin and 0.3% NaCl (w/v), 5% ethanol (v/v) in Aqua sterilisata, pH 7.4.
(§4) Vehicle 2 (used when preparing dosing solutions of the groups 4, 5 and 6): 30% hydroxypropyl-β-cyclodextrin and 0.3% NaCl (w/v) in Aqua sterilisata, pH 7.4.
(§5) Vehicle 3 (used when preparing a dosing solution of the group 3): benzyl benzoate/ricinus oil (B/R) 1+4, v/v.

[3] = Body weight, 8-PN racemic, 2S(−) 8-PN and estradiol hemihydrate in ovariectomized rats (Example 4); settings: OVX rats; s.c. once a day, 28 days; 20 mg/kg/d in HP-β-CD
Description: as §1, §2, §3, §4, §5

CC(C)=CCc1c(O)cc(O)c2c1O[C@H](c1ccc(O)cc1)CC2=O [2S(−)8-PN, 2S(−) 8-Prenylnaringenin]
effect on the uterus compared with 17β-estradiol ([1]; at the same bone effective dose): much lower effect on the uterus than 17β-estradiol at the same bone effective dose
increase of relative uterine weight compared to ovariectomy ([1]; dose range 0.67-18 mg/kg/d s.c., 4 weeks): less than twofold
relative uterine weights ([1]; dose range 0.67-18 mg/kg/d, SHAM group 0.194%): 0.054-0.065%
Relative uterus weight, Mean ([1]; 4 weeks, 0.67 mg/kg/d): 0.054%
Relative uterus weight, Mean ([1]; 4 weeks, 1.77 mg/kg/d): 0.063%
Relative uterus weight, Mean ([1]; 4 weeks, 18 mg/kg/d): 0.065%
Trabecular density at left proximal tibia, Mean [2]: 352 mg/cm3
Trabecular density at left proximal tibia, Median [2]: 352 mg/cm3
Body weight at The end (bw4b) [3]: 289(6) g
The change in Body weight (bw4b-bw0) [3]: 24(2) g
